Active and inactive are the calls of the source. The rule behind the calls is not given here.
Assays:
[1] = test system: Protein cereblon/GTPase KRas (Homo sapiens), P01116+Q96SW2 [G12D]; experiment: PROTAC activity at CRBN/KRAS G12D mutant in human ASPC1 cells assessed as induction of KRAS G12D mutant degradation at 10 nM measured after 12 hrs by immunoblot analysis relative to control; type: cell-based
[2] = test system: GP2d; experiment: PROTAC activity at CRBN/KRAS G12D mutant in human GP2d cells assessed as induction of KRAS G12D mutant degradation 0.01 to 100 nM measured after 24 hrs by immunoblot analysis; type: cell-based; conditions: dose 0.01-100 nM
[3] = test system: ASPC1; experiment: Effect on CK1alpha level in human ASPC1 cells at 10 nM measured after 8 hrs by Western blot analysis; type: functional, cell-based
[4] = test system: AGS; experiment: Antiproliferative activity against human AGS cells harbouring KRAS G12D mutant assessed as inhibition of cell growth measured after 72 hrs by Cell titer glo method; type: functional, cell-based
[5] = Antiproliferative activity against human GP2d cells harbouring KRAS G12D mutant assessed as inhibition of cell growth measured after 72 hrs by Cell titer glo method; type: functional, cell-based
[6] = test system: PSN1; experiment: Antiproliferative activity against human PSN1 cells harbouring KRAS G12R mutant assessed as inhibition of cell growth measured after 72 hrs by Cell titer glo method; type: functional, cell-based
[7] = test system: NCI-H727; experiment: Antiproliferative activity against human NCI-H727 cells harbouring KRAS G12V mutant assessed as inhibition of cell growth measured after 72 hrs by Cell titer glo method; type: functional, cell-based
[8] = test system: CCRF-CEM; experiment: Antiproliferative activity against human CCRF-CEM cells harbouring KRAS G12D mutant assessed as inhibition of cell growth measured after 72 hrs by Cell titer glo method; type: functional, cell-based
[9] = Antitumor activity against human PK-59 cells xenografted in female Balb/c nude mouse model assessed as tumor growth inhibition at 0.1 mg/kg, iv QW measured after 28 days relative to control; type: functional; conditions: PK-59, 672 h, time 28 day, read-out: TGI
[10] = Antitumor activity against human GP2d cells xenografted in female Balb/c nude mouse model assessed as tumor growth inhibition at 1 mg/kg, iv QW measured after 28 days relative to control; type: functional; conditions: 672 h, time 28 day, read-out: TGI
[11] = Antitumor activity against human GP2d cells xenografted in female Balb/c nude mouse model assessed as tumor growth inhibition at 3 mg/kg, iv QW measured after 28 days relative to control; type: functional; conditions: 672 h, time 28 day, read-out: TGI
[12] = Drug concentration in male Balb/c nude mouse plasma xenografted with human PK-59 cells at 10 mg/kg, iv administered as single dose measured after 168 hrs by LC-MS/MS analysis; type: ADME, organism-based
[13] = test system: Protein cereblon/GTPase KRas (Homo sapiens), P01116+Q96SW2 [G12D]; experiment: In vivo PROTAC activity at CRBN/KRAS G12D mutant in male Balb/c nude mouse xenografted with human PK-59 cells assessed as degradation of KRAS G12D mutant at 10 mg/kg, iv measured up to 168 hrs relative to control; type: functional, organism-based
[14] = test system: Protein cereblon/GTPase KRas (Homo sapiens), P01116+Q96SW2 [G12D]; experiment: In vivo PROTAC activity at CRBN/KRAS G12D mutant in male Balb/c nude mouse xenografted with human PK-59 cells assessed as reduction in ERK phosphorylation level in tumor at 10 mg/kg, iv measured up to 168 hrs; type: functional, organism-based
[15] = test system: Protein cereblon/GTPase KRas (Homo sapiens), P01116+Q96SW2 [G12D]; experiment: In vivo PROTAC activity at CRBN/KRAS G12D mutant in male Balb/c nude mouse xenografted with human PK-59 cells assessed as increase in cleaved caspase 7 level at 10 mg/kg, iv measured after 24 hrs relative to control; type: functional, organism-based
[16] = Drug concentration in male Balb/c nude mouse plasma xenografted with human GP2d cells at 10 mg/kg, iv administered as single dose measured after 6 hrs by LC-MS/MS analysis; type: ADME, organism-based
[17] = Drug concentration in male Balb/c nude mouse plasma xenografted with human GP2d cells at 10 mg/kg, iv administered as single dose measured after 168 hrs by LC-MS/MS analysis; type: ADME, organism-based
[18] = Drug concentration in male Balb/c nude mouse tumor xenografted with human PK-59 cells at 10 mg/kg, iv administered as single dose measured after 168 hrs by LC-MS/MS analysis; type: ADME, organism-based, Neoplasm; conditions: read-out: Ct
[19] = Stability in mouse plasma assessed as half life at 1 uM measured up to 120 mins by LC-MS/MS analysis; type: ADME, cell-free
[20] = Metabolic stability in rat liver microsomes assessed as intrinsic clearance at 1 uM preincubated for 3 mins with NADPH and measured up to 60 mins by LC-MS/MS analysis; type: ADME, Microsome; conditions: time < 63 min, read-out: CLH
[21] = Metabolic stability in dog liver microsomes assessed as intrinsic clearance at 1 uM preincubated for 3 mins with NADPH and measured up to 60 mins by LC-MS/MS analysis; type: ADME, Canis lupus familiaris, Microsome; conditions: time < 63 min, read-out: CLH
[22] = Stability in human hepatocyte assessed as half life at 100 uM measured up to 120 mins by LC-MS/MS analysis; type: ADME, cell-based; conditions: hepatocytes
[23] = molecular target: Cytochrome P450 2C8 (Homo sapiens, UniProt P10632); experiment: Inhibition of CYP2C8 in human liver microsomes using amodiaquine as substrate at 10 uM incubated for 20 mins in presence of NADPH by LC/MS analysis; type: ADME, Microsome
[24] = molecular target: Cytochrome P450 2C9 (Homo sapiens, UniProt P11712); experiment: Inhibition of CYP2C9 in human liver microsomes using diclofenac as substrate at 10 uM incubated for 15 mins in presence of NADPH by LC/MS analysis; type: ADME, Microsome; conditions: 0.25 h
[25] = molecular target: Cytochrome P450 2C19 (Homo sapiens, UniProt P33261); experiment: Inhibition of CYP2C19 in human liver microsomes using S-mephenytoin as substrate at 10 uM incubated for 15 mins in presence of NADPH by LC/MS analysis; type: ADME, Microsome; conditions: 0.25 h
[26] = molecular target: Cytochrome P450 2D6 (Homo sapiens, UniProt P10635); experiment: Inhibition of CYP2D6 in human liver microsomes using dextromethorphan as substrate at 10 uM incubated for 15 mins in presence of NADPH by LC/MS analysis; type: ADME, Microsome; conditions: 0.25 h
[27] = Plasma protein binding in mouse at 2 uM by LC-MS/MS analysis; type: ADME, cell-free; conditions: read-out: PPB
[28] = Plasma protein binding in monkey at 2 uM by LC-MS/MS analysis; type: ADME, cell-free, Macaca mulatta; conditions: rhesus monkey, read-out: PPB
[29] = Volume of distribution at steady state in male ICR mouse at 1 mg/kg, iv measured up to 24 hrs by LC-MS/MS analysis; type: ADME, organism-based; conditions: in vivo, read-out: Vdss
[30] = Half life in male Beagle dog at 1 mg/kg, iv measured up to 24 hrs by LC-MS/MS analysis; type: ADME, organism-based, Canis lupus familiaris; conditions: in vivo
[31] = Half life in male cynomolgus monkey at 1 mg/kg, iv measured up to 24 hrs by LC-MS/MS analysis; type: ADME, organism-based, Macaca fascicularis; conditions: in vivo
[32] = Clearance in male cynomolgus monkey at 1 mg/kg, iv measured up to 24 hrs by LC-MS/MS analysis; type: ADME, organism-based, Macaca fascicularis; conditions: in vivo
[33] = Drug concentration in male ICR mouse plasma at 10 mg/kg, iv measured after 0.25 hrs by LC-MS/MS analysis; type: ADME, organism-based
[34] = Elimination half life in male ICR mouse lung at 10 mg/kg, iv measured up to 336 hrs by LC-MS/MS analysis; type: ADME, organism-based; conditions: read-out: beta t1/2 (converted)

Chain of Protein cereblon/GTPase KRas (Homo sapiens), P01116+Q96SW2 [G12D] (P01116 whole entry G12D): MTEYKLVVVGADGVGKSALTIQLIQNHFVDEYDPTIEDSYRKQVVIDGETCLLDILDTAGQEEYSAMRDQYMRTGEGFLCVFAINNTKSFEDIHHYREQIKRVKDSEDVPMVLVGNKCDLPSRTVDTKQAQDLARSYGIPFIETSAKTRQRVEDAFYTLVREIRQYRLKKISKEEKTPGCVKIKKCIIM
Chain of Protein cereblon/GTPase KRas (Homo sapiens), P01116+Q96SW2 [G12D] (Q96SW2 whole entry partner): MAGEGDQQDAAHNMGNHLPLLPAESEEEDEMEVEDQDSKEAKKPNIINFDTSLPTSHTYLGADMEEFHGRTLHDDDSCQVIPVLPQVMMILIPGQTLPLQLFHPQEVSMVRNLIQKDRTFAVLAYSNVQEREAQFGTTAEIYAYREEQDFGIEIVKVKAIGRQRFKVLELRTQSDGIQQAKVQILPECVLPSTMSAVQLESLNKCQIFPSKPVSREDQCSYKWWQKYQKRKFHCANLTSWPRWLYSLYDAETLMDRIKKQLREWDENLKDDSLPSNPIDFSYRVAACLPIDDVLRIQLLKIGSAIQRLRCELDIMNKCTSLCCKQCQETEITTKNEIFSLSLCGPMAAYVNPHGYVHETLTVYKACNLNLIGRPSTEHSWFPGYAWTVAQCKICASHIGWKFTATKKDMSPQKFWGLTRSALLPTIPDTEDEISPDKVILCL
Chain of Cytochrome P450 2C19 (P33261 whole entry): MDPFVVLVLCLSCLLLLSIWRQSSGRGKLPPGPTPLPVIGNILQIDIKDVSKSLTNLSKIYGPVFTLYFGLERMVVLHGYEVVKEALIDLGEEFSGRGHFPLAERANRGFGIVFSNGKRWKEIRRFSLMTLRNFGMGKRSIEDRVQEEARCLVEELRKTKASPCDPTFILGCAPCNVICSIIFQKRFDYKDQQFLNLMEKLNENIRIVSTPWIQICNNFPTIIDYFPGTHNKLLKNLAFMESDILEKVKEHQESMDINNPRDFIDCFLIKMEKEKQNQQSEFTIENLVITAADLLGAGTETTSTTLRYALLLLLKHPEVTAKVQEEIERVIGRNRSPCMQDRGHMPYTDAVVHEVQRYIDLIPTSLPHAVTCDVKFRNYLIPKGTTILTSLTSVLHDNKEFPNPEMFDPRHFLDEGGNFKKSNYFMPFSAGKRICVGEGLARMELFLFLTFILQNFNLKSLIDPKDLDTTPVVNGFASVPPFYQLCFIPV
Chain of Cytochrome P450 2C8 (P10632 whole entry): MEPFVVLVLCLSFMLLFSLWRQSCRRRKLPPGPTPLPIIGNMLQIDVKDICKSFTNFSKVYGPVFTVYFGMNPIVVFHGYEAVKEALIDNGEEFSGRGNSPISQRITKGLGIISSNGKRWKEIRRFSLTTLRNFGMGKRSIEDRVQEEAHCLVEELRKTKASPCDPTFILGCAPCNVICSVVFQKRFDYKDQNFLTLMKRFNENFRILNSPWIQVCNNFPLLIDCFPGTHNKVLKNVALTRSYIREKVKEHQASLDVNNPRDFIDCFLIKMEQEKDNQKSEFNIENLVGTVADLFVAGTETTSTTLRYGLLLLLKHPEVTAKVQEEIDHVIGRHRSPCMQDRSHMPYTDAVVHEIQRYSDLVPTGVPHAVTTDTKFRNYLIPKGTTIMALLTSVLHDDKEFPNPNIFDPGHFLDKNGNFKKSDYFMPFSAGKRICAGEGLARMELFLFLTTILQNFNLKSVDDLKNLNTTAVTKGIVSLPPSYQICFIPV
Chain of Cytochrome P450 2D6 (P10635 whole entry): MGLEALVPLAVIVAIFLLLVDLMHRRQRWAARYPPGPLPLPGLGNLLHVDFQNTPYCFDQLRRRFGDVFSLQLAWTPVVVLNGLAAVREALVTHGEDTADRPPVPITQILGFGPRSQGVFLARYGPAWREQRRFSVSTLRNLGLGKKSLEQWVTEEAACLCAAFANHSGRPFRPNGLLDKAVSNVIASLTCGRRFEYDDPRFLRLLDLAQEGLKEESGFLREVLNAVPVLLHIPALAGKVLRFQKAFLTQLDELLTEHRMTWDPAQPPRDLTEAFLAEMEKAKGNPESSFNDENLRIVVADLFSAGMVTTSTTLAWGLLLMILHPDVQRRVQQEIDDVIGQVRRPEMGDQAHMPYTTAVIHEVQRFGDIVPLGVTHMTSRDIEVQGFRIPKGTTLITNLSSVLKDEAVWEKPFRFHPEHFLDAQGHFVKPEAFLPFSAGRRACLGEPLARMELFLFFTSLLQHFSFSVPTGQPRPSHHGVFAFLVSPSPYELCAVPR
Chain of Cytochrome P450 2C9 (P11712 whole entry): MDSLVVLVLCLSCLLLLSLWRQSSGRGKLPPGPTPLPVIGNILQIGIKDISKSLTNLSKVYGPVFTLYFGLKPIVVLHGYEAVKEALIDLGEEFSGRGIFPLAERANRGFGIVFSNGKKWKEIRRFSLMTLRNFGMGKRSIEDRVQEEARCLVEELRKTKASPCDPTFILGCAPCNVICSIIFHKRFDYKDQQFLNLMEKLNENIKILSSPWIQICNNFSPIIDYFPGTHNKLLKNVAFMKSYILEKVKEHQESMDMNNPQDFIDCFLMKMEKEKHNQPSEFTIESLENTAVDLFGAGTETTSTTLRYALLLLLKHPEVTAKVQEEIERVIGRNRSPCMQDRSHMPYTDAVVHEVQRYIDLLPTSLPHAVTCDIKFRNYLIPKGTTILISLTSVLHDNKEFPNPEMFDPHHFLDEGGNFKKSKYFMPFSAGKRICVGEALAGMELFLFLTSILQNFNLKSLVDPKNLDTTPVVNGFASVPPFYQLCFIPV

C#Cc1c(F)ccc2cc(O)cc(-c3ncc4c(N5CC6CCC(C5)N6)nc(OCC5(CN6CCC7(CC6)CC(N6CCC(c8cc9c(cc8F)c(N8CCC(=O)NC8=O)nn9C)CC6)C7)CC5)nc4c3F)c12
Activity [1]: 90%
Activity [2]: Active
Activity [3]: inactive
IC50 [4]: 1.01 nM
IC50 [5]: 0.19 nM
Activity [6]: Weak_effect; Compound Showed Weaker Potency In Antiproliferative Activity Compared To Mrtx1133
Activity [7]: Weak_effect; Compound Showed Weaker Potency In Antiproliferative Activity Compared To Mrtx1133
Activity [8]: Active; Compound Showed Stronger Antiproliferative Activity Compared To Mrtx1133
inhibition in vivo at 0.1 mg/kg [9]: 81.4%
inhibition in vivo at 1 mg/kg [10]: 74.8%
inhibition in vivo at 3 mg/kg [11]: 96.9%
concentration at 168 h [12]: 5.3 ng/mL
Activity [13]: 87.7%
Activity [14]: Active
Activity [15]: > 100%
concentration at 6 h [16]: 113 ng/mL
concentration at 168 h [17]: 4.1 ng/mL
concentration at 168 h [18]: 719 ng/g
half-life at 1 µM [19]: 533 min
CLint scaled at 1 µM [20]: 16.6 mL/min/kg
CLint scaled at 1 µM [21]: 4.6 mL/min/kg
half-life at 100 µM [22]: 436 min
inhibition (INH) [23]: Not_active
inhibition (INH) [24]: Not_active
inhibition (INH) [25]: Not_active
inhibition (INH) [26]: Not_active
fraction unbound at 2 µM [27]: < 0.05
fraction unbound at 2 µM [28]: < 0.05
Vd [29]: 15.8 L/kg
half-life [30]: 936 min
half-life [31]: 744 min
clearance [32]: 19.5 mL/min/kg
concentration at 0.25 h [33]: 903 ng/mL
half-life [34]: 4.38 days
